For assay [1], the target named is Serine-protein kinase ATM (Homo sapiens, UniProt Q13315). The assay can be described thus: Inhibitory Activities of Compounds on ATM. How it is done:
To a 96-well plate, 98 μL of DMSO and 2 μL of the 10 mM stock solution were added and mixed evenly so that the concentration of the solution was 200 μM.

The target of assay [2] is Phosphatidylinositol 4,5-bisphosphate 3-kinase catalytic subunit alpha isoform (Homo sapiens, UniProt P42336). The assay can be described thus: Inhibitory Activities of Compounds on PI3Kα, PI3Kβ, PI3Kγ, and PI3Kδ Kinase: ADP-Glo Kinase Assay. On the procedure:
(§1) (1) Preparation of 1× kinase buffer50 mM HEPES, pH 7.53 mM MgCl21 mM EGTA100 mM NaCl0.03% CHAPS2 mM DTT(2) Preparation of test compound1) Dissolution and dilution of compound:The compound was dissolved in DMSO to yield a stock solution. Before the assay, the stock solution of the compound was diluted with DMSO in a 384-well plate to yield a 100× solution at a concentration that is 100 times a target concentration for assay.50 μL of DMSO was added, respectively, into two blank wells in the same 384 well plate, corresponding to the total reaction control without compound and the blank control without enzyme.2) Preparation of test plate: 50 nL of the compound solution in each of the above wells was taken to a test plate.(3) Kinase reaction1) PI3Kα, PI3Kβ, PI3Kγ, and PI3Kδ kinases were dissolved, respectively, in 1× kinase buffer to yield a 2× enzyme solution at a concentration that is twice the final concentration. 2.5 µL of the 2× enzyme solution was taken to each well of the test plate. The blank control without enzyme was added with 2.5 μL of the 1× kinase buffer instead of the enzyme solution. The test plate was shaken for mixing evenly.2) PIP2 substrate and ATP were dissolved in the 1× kinase buffer to yield a 2× substrate solution that is twice the final concentration. 2.5 μL of the 2× substrate solution was taken to each well of the test plate. The test plate was shaken for mixing evenly.3) Kinase reactionEach well of the test plate was covered and incubated at room temperature for 1 h.(4) Kinase detection1) The ADP-Glo reagent was equilibrated at room temperature.2) 5 μL of ADP-Glo reagent was added to each well of the test plate to terminate the reaction.3) The plate was centrifuged for a short time to mix evenly, shaken gently, and equilibrated for 120 min.4) 10 μL of kinase detection reagent was added to each well, with shaking for 1 min, after equilibrating for 30 min, […] detection was performed.(5) Reading of the reaction wells(6) Calculation of inhibitory rates by means of curve fitting to the read values

Assay [3] deals with Phosphatidylinositol 4,5-bisphosphate 3-kinase catalytic subunit beta isoform (Homo sapiens, UniProt P42338). Described as above. How it is done:
as §1

Assay [4] deals with T1, Phosphatidylinositol 4,5-bisphosphate 3-kinase catalytic subunit delta isoform (Homo sapiens, UniProt O00329).
T1 sequence (O00329 whole entry): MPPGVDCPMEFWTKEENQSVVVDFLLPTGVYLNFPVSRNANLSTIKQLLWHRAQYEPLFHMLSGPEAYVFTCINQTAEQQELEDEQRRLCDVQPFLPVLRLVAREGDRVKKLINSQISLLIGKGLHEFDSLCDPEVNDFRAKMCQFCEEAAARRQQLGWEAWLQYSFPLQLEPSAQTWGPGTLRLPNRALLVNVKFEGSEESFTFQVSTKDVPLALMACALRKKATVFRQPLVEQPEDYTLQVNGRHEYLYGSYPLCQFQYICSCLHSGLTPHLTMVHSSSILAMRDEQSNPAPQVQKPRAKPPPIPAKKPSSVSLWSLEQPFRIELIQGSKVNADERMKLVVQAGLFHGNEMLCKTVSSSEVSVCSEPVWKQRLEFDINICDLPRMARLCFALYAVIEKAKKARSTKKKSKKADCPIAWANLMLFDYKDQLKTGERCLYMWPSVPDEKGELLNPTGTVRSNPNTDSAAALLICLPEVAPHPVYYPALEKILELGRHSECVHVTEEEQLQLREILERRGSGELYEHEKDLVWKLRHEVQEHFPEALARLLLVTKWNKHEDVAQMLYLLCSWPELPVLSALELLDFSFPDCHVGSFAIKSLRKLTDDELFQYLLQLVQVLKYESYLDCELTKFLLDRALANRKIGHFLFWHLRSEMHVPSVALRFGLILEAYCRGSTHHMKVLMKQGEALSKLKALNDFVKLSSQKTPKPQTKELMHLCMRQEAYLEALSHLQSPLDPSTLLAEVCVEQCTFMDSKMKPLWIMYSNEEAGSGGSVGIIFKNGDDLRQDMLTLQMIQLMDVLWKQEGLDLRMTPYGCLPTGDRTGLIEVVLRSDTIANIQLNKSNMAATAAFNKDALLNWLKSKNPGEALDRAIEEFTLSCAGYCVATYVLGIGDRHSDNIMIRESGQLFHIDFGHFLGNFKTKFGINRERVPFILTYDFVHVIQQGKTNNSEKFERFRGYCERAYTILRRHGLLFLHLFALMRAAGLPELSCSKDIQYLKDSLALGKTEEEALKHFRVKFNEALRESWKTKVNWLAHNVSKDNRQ
The assay is described as above. How it is done:
as §1

Assay [5] deals with Phosphatidylinositol 4,5-bisphosphate 3-kinase catalytic subunit gamma isoform (Homo sapiens, UniProt P48736). The assay is described as above. How it is done:
as §1

Assay [6] addresses DNA-dependent protein kinase catalytic subunit (Homo sapiens, UniProt P78527). The assay can be described thus: Inhibitory Activities of Compounds on DNA-PK Kinase: ADP-Glo Kinase Assay. On the procedure:
(1) Preparation of 1× kinase buffer40 mM Tris, pH 7.50.0055% Brij-3520 mM MgCl20.05 mM DTT(2) Preparation of test compound1) The compound was dissolved in DMSO to yield a stock solution. Before the assay, the stock solution of the compound was diluted with DMSO to yield a 100× solution at a concentration that is 100 times a target concentration for assay. […] The test plate was shaken for mixing evenly.3) Kinase reactionEach well of the test plate was covered and incubated at room temperature for 3 h.(4) Kinase detection1) The ADP-Glo reagent was equilibrated at room temperature.2) 5 μL of ADP-Glo reagent was added to each well of the test plate to terminate the reaction.3) The plate was centrifuged for a short time to mix evenly, shaken gently, and equilibrated for 120 min.4) 10 μL of kinase detection reagent was added to each well, with shaking for 1 min, after equilibrating for 30 min, […] detection was performed.(5) Reading of the reaction wells(6) Calculation of inhibitory rates by means of curve fitting to the read values.

Assay [7] deals with Serine/threonine-protein kinase ATR (Homo sapiens, UniProt Q13535). The assay can be described thus: Inhibitory Activity of Compounds on ATR. How it is done: (1) Preparation of 1 kinase buffer and reaction termination solution1) 1 kinase buffer50 mM HEPES, pH 7.50.0015% Brij-[…] MnCl22) Reaction termination solution100 mM HEPES, pH 7.50.015% Brij-350.2% Coating Reagent #350 mM EDTA(2) Preparation of test compound1) The compound was dissolved in DMSO to yield a stock solution. Before the assay, to a 96-well plate, 30 uL of a 10 mM stock solution was taken and added with 60 uL of DMSO. […] 10 µL of the 2 substrate solution was taken to each well of the test plate.3) Kinase reaction:After incubation at 28 C. for a certain time, 30 uL of the reaction termination solution was added to terminate the enzymatic reaction.(5) Reading of the reaction wells(6) Calculation of inhibitory rates by means of curve fitting to the read values.% inhibitory rate=(max+-sample value)/(max+-min)*100; wherein max represents the value of the total reaction well with DMSO but no compound; min represents the value of the blank control well without enzyme and compound.

SMILES strings stand for the structures.

Chain of Serine-protein kinase ATM (Q13315 whole entry): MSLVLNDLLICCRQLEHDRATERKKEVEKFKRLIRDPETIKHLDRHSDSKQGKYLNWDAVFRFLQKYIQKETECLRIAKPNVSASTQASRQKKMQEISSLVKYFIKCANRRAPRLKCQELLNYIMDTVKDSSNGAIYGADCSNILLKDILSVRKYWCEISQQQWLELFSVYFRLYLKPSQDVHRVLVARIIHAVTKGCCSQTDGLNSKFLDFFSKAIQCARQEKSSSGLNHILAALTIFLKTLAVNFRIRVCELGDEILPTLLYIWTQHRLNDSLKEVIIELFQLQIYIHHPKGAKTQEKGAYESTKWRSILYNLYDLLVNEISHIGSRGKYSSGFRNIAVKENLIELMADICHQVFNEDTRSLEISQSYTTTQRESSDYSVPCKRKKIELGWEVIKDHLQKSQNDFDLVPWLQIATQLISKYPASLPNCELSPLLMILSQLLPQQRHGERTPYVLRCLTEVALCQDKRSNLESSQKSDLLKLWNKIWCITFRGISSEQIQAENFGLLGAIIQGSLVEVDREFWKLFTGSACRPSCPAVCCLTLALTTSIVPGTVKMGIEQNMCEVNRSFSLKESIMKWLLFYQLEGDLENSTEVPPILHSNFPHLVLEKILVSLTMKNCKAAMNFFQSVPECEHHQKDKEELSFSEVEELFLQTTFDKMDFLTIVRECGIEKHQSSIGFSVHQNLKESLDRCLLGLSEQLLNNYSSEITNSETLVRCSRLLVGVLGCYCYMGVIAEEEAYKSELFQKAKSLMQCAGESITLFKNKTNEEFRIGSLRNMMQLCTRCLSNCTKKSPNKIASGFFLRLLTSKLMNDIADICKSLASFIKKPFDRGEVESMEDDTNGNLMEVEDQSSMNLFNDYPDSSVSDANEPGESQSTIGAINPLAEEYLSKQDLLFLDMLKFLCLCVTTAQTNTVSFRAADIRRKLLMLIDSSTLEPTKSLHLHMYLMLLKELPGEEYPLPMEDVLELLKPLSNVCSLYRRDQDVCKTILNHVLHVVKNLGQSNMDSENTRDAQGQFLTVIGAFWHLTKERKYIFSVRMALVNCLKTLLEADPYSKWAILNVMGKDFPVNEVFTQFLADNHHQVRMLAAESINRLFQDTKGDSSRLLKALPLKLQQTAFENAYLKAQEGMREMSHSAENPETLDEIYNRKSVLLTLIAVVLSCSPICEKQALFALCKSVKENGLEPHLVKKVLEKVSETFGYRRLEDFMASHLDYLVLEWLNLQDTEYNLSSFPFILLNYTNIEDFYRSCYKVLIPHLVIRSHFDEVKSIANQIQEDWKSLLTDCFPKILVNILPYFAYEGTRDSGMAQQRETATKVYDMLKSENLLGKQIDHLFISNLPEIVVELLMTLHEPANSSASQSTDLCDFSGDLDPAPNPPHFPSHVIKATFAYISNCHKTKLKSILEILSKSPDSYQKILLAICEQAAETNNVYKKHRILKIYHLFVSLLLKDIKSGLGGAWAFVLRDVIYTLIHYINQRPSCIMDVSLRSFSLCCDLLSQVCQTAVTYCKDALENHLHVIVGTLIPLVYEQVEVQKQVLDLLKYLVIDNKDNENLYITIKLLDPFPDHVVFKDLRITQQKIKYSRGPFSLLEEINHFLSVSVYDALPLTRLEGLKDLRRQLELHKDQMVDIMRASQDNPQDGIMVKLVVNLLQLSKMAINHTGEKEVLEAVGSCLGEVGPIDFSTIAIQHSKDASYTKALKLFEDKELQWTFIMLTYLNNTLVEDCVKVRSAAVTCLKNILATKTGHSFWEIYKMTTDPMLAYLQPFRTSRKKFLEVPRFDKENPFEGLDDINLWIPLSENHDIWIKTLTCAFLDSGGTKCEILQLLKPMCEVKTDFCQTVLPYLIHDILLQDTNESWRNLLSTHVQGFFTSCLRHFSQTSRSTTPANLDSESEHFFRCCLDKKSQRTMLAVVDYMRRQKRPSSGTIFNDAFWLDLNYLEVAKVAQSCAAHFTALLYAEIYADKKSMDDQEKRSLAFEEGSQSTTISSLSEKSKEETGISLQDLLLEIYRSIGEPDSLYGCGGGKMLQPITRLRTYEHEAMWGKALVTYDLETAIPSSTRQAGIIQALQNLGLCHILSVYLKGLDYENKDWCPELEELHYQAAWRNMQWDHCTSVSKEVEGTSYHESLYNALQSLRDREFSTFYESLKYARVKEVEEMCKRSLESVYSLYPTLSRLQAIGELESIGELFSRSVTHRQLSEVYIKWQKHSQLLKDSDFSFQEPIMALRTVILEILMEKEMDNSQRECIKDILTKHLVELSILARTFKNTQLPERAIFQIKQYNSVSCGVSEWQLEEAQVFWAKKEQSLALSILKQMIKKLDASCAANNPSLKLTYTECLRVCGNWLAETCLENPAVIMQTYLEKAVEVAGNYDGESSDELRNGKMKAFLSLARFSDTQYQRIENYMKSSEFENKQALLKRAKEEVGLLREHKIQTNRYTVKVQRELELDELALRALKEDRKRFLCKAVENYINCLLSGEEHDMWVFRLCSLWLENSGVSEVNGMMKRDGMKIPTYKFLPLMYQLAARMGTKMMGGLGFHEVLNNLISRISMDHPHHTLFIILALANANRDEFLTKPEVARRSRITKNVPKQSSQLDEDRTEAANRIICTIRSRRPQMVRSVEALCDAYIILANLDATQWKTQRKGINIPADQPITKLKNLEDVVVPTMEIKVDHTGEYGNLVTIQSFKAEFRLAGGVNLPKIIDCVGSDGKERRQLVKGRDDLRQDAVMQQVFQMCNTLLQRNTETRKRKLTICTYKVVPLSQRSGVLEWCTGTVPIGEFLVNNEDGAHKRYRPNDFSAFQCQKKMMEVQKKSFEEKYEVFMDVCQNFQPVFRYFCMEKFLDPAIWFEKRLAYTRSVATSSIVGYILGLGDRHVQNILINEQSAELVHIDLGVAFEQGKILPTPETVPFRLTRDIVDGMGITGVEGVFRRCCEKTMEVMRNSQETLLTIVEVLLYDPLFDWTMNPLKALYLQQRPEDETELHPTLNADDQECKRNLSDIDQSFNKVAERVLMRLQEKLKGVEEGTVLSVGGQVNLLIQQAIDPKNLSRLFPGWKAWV
Chain of Phosphatidylinositol 4,5-bisphosphate 3-kinase catalytic subunit beta isoform (P42338 whole entry, canonical isoform): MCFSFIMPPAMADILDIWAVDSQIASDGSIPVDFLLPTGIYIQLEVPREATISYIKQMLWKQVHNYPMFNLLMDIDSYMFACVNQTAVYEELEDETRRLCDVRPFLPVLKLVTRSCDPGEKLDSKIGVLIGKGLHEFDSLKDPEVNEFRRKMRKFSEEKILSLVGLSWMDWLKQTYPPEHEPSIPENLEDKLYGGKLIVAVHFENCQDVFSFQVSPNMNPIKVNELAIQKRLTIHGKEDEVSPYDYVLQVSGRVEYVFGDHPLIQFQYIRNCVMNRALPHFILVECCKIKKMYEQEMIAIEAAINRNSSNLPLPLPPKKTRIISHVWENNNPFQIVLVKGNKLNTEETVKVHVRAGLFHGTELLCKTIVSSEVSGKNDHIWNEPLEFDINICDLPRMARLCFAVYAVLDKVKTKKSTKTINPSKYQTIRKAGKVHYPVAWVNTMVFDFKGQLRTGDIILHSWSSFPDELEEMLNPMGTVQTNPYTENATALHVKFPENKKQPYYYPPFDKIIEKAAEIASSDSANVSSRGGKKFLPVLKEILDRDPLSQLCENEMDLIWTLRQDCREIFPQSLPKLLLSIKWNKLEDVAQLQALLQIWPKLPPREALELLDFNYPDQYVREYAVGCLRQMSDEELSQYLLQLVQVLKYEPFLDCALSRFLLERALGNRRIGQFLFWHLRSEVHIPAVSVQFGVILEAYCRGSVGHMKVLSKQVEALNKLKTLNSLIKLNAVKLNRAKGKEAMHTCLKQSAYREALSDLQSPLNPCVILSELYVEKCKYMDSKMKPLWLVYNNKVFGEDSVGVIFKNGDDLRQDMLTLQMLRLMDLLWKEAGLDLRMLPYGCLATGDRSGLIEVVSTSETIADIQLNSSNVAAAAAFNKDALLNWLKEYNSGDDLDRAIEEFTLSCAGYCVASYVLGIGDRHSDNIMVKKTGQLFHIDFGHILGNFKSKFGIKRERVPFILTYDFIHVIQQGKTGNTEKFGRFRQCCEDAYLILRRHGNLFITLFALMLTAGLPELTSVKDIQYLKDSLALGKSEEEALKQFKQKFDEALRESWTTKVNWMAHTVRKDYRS

Consider `Cn1c(=O)n2c3c4c(c(-c5ccc(OCCCN6CCCCC6)nc5)c(F)cc4ncc31)OC1CCCCC12` (stereo not given) [US20240294545, Compound A-21], for which the IC50 in assay [1] is 0.45 nM; in assay [2], over 10 µM; in assay [3], over 10 µM; in assay [4], over 10 µM; in assay [5], over 10 µM; in assay [6], 2230 nM. Further, the IC50 in assay [7] was over 10 µM.

In turn, `COc1cc2ncc3c4c2c(oc2ccccc2n4c(=O)n3C)c1-c1cnn(C)c1` [US20240294545, Compound A-33] gave an IC50 in assay [1] of 0.08 nM.

In turn, `Cn1c(=O)n2c3c4c(c(-c5ccc(OCCCN6CCC(F)CC6)nc5)c(F)cc4ncc31)OCC21CCC1` [US20240294545, Compound A-165] displayed a half-inhibitory concentration (IC50) in assay [1] of 0.37 nM. This IC50 lies about 4.6-fold higher than the previous one.

The compound `Cn1c(=O)n2c3c4c(c(-c5ccc(OCCCN6CCC(C#N)CC6)nc5)c(F)cc4ncc31)OCC21CCC1` [US20240294545, Compound A-166] yielded an IC50 in assay [1] of 0.21 nM.

`Cn1c(=O)n2c3c4c(c(-c5ccc(OCCCN6CCC7(CC6)COC7)nc5)c(F)cc4ncc31)OCC21CCC1` [US20240294545, Compound A-167]: in assay [1], the IC50 amounted to 0.33 nM.

In turn, `Cn1c(=O)n2c3c4c(c(-c5ccc(OCCCN6CC7CC7C6)nc5)c(F)cc4ncc31)OCC21CCC1` (stereo not given) [US20240294545, Compound A-170] gave an IC50 in assay [1] of 0.7 nM.

`CC[C@@H]1CNc2c(-c3ccc(OCCCN4CCCCC4)nc3)c(F)cc3ncc4c(c23)n1c(=O)n4C` [US20240294545, Compound A-194] gave an IC50 in assay [1] of 0.45 nM.

As to `CC[C@@H]1CNc2c(-c3ccc(OCCCN4CCCCC4)nc3)ccc3ncc4c(c23)n1c(=O)n4C` [US20240294545, Compound A-201], the half-inhibitory concentration (IC50) in assay [1] stood at 0.61 nM.

In assay [1], `Cn1c(=O)n2c3c4c(c(-c5ccc(OCCCN6CCCCC6)nc5)c(F)cc4ncc31)OCC21CCOCC1` [US20240294545, Compound A-204] gave an IC50 of 0.78 nM.

These data come from BindingDB's records for patent US20240294545 (Cspc Zhongqi Pharmaceutical Technology (Shijiazhuang), 2024).
